The text below walks through data of patent US8217074B2, “Use of sargachromenol” (Catholic University Industry Academic Cooperation Foundation, priority 2007, dated 2012).

The structures appear in SMILES notation.

For orientation: viability means the share of living cells, or the viability signal relative to a control.

The subject of data set [1] is human keratinocytes HaCaT. Put plainly: Apoptosis by FACS analysis (Propidium Iodide staining). The class given is cell-based. Conditions: 24 hours. As to the method:
Apoptosis effect of the sargachromenol of the present invention on human keratinocytes was investigated by FACS and TUNEL analysis. First, for FACS analysis, HaCaT cells were cultured in the same manner as in Example 2-1, transferred to a 10 cm plate, with 2×10^6 cells/well, and incubated at 37° C. in a 5% CO2 incubator for 24 hours. After treating the cells with 0, 1, 2 or 5 μg/mL sargachromenol, they were incubated at 37° C. in a 5% CO2 incubator for 24 hours. Then, the cells were released from the plate using trypsin, and fixed using 4% paraformaldehyde. The fixed cells were treated with 70% alcohol to increase cell membrane permeability. Then, the cells were stained with Propidium Iodide (PI) solution for 30 minutes, and subjected to FACS analysis. Cells treated with DMSO only and not with sargachromenol were used as control group.
(In general: Flow cytometry measures light scatter and fluorescence of single cells or particles in a stream.)

Data set [2] relates to human keratinocytes HaCaT. The data set is described as follows: Apoptosis by TUNEL analysis. Conditions: increasing concentration, 24 hours. The class given is cell-based. The method, then:
For TUNEL analysis, the cells were incubated for 24 hours as above, and transferred to a chamber slide using an ApopTag® fluorescein in situ apoptosis detection kit. After adhering the cells to the bottom well, they were washed with pH 7.4 PBS solution. The chamber slide was immersed in PBS solution of 4% paraformaldehyde for 30 minutes at room temperature in order to completely fix the cells. And, the cells were washed with PBS and immersed in blocking solution (1% H2O2 in methanol) for 30 minutes at room temperature in order to inhibit the action of endogenous peroxidase. Then, the cells were washed with PBS and immersed in 0.1% sodium citrate solution containing 0.1% Triton X-100 at 4° C. for 2 minutes in order to make the cells permeable. For labeling, the cells were washed with PBS two more times and diluted TUNEL reaction mixture was added to the slide. After incubating in a 37° C. humidified chamber for 60 minutes, the slide was washed with PBS. Then, the slide was further incubated in TBS solution containing 1% BSA and 5% FBS for 20 minutes. After adding anti-fluorescein antibody conjugated with horse-radish peroxidase to the culture medium and reacting at 37° C. for 1 hour, the slide was washed with PBS and DAB-matrix solution was added. Hematoxylin solution was added for counter staining. […]

For data set [3], the system named is caspase-8 and caspase-3 in human keratinocytes HaCaT. Put plainly: Western blot of apoptosis-related factors. The class given is cell-based. As to the method:
Human keratinocytes HaCaT cells were cultured in the same manner as in Example 2-1 and transferred to a 10 cm plate, at 2×10^6 cells/well. After about 18 hours of serum starvation, the cells were treated with 0, 1, 2 or 5 μg/mL sargachromenol. 18 hours later, the cells were lysed using RIPA buffer [12 mM EDTA, 137 mM NaCl, 20 mM Tris-HCl (pH 8.0), 1 mM Na3VO4 (Sigma-Aldrich, USA) 10 mM NaF (Sigma), 1 mM PMSF (Sigma), 1% Triton X-100, 10% glycerol and protease inhibitor cocktail (Roche, Germany)]. The lysed cells were put in a 1.5 mL tube and, after pipetting, put on ice for 20 minutes. The lysate was centrifuged at 14000 rpm for 20 minutes, and protein was isolated from the supernatant. Sample concentration of the isolated protein was determined using a BCA protein analysis kit (Pierce, Rockford, Ill.) and electrophoresis (SDS-PAGE) was carried out. Western blot analysis was carried out on the protein isolated by the electrophoresis. Western blot analysis was carried out as follows. After electrophoresis of the sample, the protein was transferred from the gel to a polyvinylidene fluoride membrane (Pall Corporation). Then, after blocking the membrane at room temperature for 2 hours using 3% BSA solution (Amresco, USA), it was treated with primary antibodies and reaction was carried out at room temperature for 2 hours. The primary antibodies were anti-caspase-3 antibody, anti-caspase-8 antibody and anti-actin antibody (Cell Signaling Technology, Beverly, Mass.), which are antibodies associated in apoptosis-related signaling. After reaction with the primary antibodies, it was washed with TBS for about 15 minutes and further reacted for 45 minutes by treating with secondary antibodies. The secondary antibodies were goat anti-mouse antibody and goat anti-rabbit antibody (Zymed, San Francisco, USA). Then, after washing sufficiently with TBS for over 30 minutes, protein was identified using an ECL detection kit (Santa Cruz). Cells not treated with sargachromenol were used as control group.
In general terms: A western blot detects proteins with antibodies after separation by electrophoresis.

For data set [4], the system named is human keratinocytes HaCaT. Put plainly: Cytotoxicity analysis by MTT cell viability assay. Type of data set: cell-based. Conditions: 0, 1, 2, 5 or 10 μg/mL, 24 hours. As to the method:
(§1) Cytotoxicity effect of the sargachromenol of the present invention isolated and purified in Example 1 on human keratinocytes HaCaT was investigated by MTT cell viability analysis.
(§2) HaCaT cells were obtained from Professor N. Fusenig of the German Cancer Research Institute. The HaCaT cells were incubated in DMEM medium containing 10% FBS (Hyclone), 100 unit/mL penicillin and 100 μg/mL streptomycin at 37° C., in a 5% CO2 incubator. During the incubation, cell viability and number of cells were measured periodically using a hemacytometer (Neubauer, Germany) by the trypan blue exclusion method. In all experiments, initial cell viability was maintained over 95%.
(§3) The cultured HaCaT cells were transferred to a 96-well plate, with 5×10^4 cells/well, and incubated at 37° C. in a 5% CO2 incubator for 24 hours. Then, the cultured HaCaT cells were treated with 0, 1, 2, 5 or 10 μg/mL sargachromenol, and further incubated at 37° C. in a 5% CO2 incubator for 24 hours. Then, without removing the medium, each well was treated with 5 mg/mL MTT reagent at a concentration of 20 μL/100 μL, and incubated for 2 hours. Subsequently, after removing the medium, 150 μL of DMSO was added to each well and cell viability was analyzed by measuring absorbance at 540 nm using an ELISA reader (Molecular Devices, USA). Cells non-treated with sargachromenol were used as control group. Cell viability was calculated as relative value of that of the control group (100%).
For orientation: Tetrazolium assays rely on reduction of a dye to a coloured formazan, in cell work by metabolically active cells.

Data set [5] can be described thus: Cytotoxicity analysis by MTT cell viability assay. Type of data set: cell-based, human. Conditions: human, HaCaT keratinocytes. As to the method: as §1, §2, §3
The subject of data set [6] is UVB irradiated human keratinocytes HaCaT. The data set is described as follows: MTT cell viability after sargachromenol pre-treatment and UVB irradiation. Type of data set: cell-based. The method, then:
Synergic apoptosis effect by UV and sargachromenol on human keratinocytes was investigated. HaCaT cells were cultured in the same manner as in Example 2-1 and transferred to a 6-well plate, at 3×10^5 cells/well. After about 12 hours of serum starvation, each well was pre-treated with 0, 0.5, 1, 2, 5 or 10 μg/mL sargachromenol, and UVB was irradiated at 150 J/m^2 (FS24T12/UVB/HO, Voltare Co., Fairfield, Conn., USA, 290-320 nm). 18 hours later, without removing the medium, each well was treated with 5 mg/mL MTT reagent at a concentration of 20 μL/100 μL, and incubated for 2 hours. Subsequently, after removing the medium, 150 μL of DMSO was added to each well and cell viability was analyzed by measuring absorbance at 540 nm using a spectrophotometer. Cells non-treated with sargachromenol were used as control group. Cell viability was calculated as relative value of that of the control group (100%).

The test system of a further data set is nerve cell. Particulars: Chi Kwan Tsang et al, Neuroscience, 2005; cited from earlier work.
Data set [7] relates to caspase-8, caspase-9 and caspase-3 in human keratinocytes HaCaT. Put plainly: Western blot of apoptosis-related factors after pre-treatment and UVB irradiation. Type of data set: cell-based. The method, then: In Example 4, it was confirmed that UV further enhances the apoptosis of human keratinocytes by sargachromenol. Thus, it was investigated whether UV has effect on sargachromenol-induced apoptosis-related factors. First, human keratinocytes HaCaT cells were cultured in the same manner as in Example 2-1 and transferred to a 10 cm plate, at 2×10^6 cells/well. After about 18 hours of serum starvation, each well was pre-treated with 0, 2 or […] sargachromenol for 30 minutes and UVB was irradiated. 8 hours later, the cells were lysed using RIPA buffer [12 mM EDTA, 137 mM NaCl, 20 mM Tris-HCl (pH 8.0), 1 mM Na3VO4 (Sigma-Aldrich, USA) 10 mM NaF (Sigma), 1 mM PMSF (Sigma), 1% Triton X-100, 10% glycerol and protease inhibitor cocktail (Roche, Germany)]. Electrophoresis (SDS-PAGE) was carried out after determination of protein concentration. Western blot analysis was carried out on the isolated protein as in Example 3. Cells not treated with sargachromenol were used as control group.

In the case of `CC(C)=CCC/C(=C/CC/C(C)=C/CCC1(C)C=Cc2cc(O)cc(C)c2O1)C(=O)O` (centres unmarked) [sargachromenol], the “apoptosis effect, concentration comparison (FACS)” value in data set [1] (5 μg/mL versus 1 μg/mL) was “better at treatment with 5 μg/mL than 1 μg/mL”. For the same molecule, the “apoptosis effect versus control group (FACS)” value in data set [1] (1, 2 or 5 μg/mL, control DMSO only) was “superior in the cells treated with sargachromenol than in the control group”. Besides, in data set [2], the “number of TUNEL-positive (dead) cells” value is given as “increased as the concentration of the sargachromenol of the present invention increased”. Further, the “cleavage of caspase-8 and caspase-3” value in data set [3] (0, 1, 2 or 5 μg/mL, higher concentration, no UV) is “caspase-8 and caspase-3 were cleaved”. Besides, in data set [3] (0, 1, 2 or 5 μg/mL, no UV), the “quantity of cleaved protein” value is reported as “increased in a concentration-dependent manner”. The activation of caspase entry in data set [3] (5 μg/mL sargachromenol only, 18 hours later) is “Activation of caspase was observed”; in data set [7] (2 or 5 μg/mL sargachromenol only, no UVB, 8 hours) it was “activation of caspase was not observed”. Also, the “cell viability, concentration dependence” value in data set [4] is given as “cell viability decreased as the concentration of sargachromenol increased”. The viability at 24 h, 5 μg/mL in data set [5] (5 μg/mL sargachromenol only, without UV irradiation) is ≥ 40%. In data set [5] (5 μg/mL sargachromenol, 24 hours, relative to control group (100%), no UV, read-out: reduction of cell viability), the cytotoxicity at 24 h, 5 μg/mL turned out to be 40%. Moreover, in data set [6] (Homo sapiens, HaCaT, light or radiation study, 1 μg/mL pre-treatment, UVB 150 J/m^2, 18 hours later), the viability at 1 µg/mL is ~25%. The “apoptosis versus cells without UV” value in data set [6] (pre-treated with sargachromenol and irradiated with UV, compared with same condition without UV) was “much more increased apoptosis”. Besides, in the data set with nerve cell, the “NGF (nerve growth factor)-dependent nerve cell growth promoting activity” value is “reported to have NGF (nerve growth factor)-dependent nerve cell growth promoting activity”. Besides, the cleaved caspases entry in data set [7] (pre-treated with sargachromenol and irradiated with UVB, 8 hour later) was “cleaved caspase-8, caspase-9 and caspase-3 were observed”.
